Results reported in ChEMBL document CHEMBL6087434, “An Activatable Heavy-Atom-Free Upconversion Photosensitizer for Targeted Imaging and Treatment of Tumors” (J Med Chem, 2024).
Activity calls are given as the source filed them. The rule behind the calls is not given here.

Experiments:
[1] = Induction of singlet oxygen quantum yield under 808 nm light irradiation by DPBF based assay; assay type: functional
A549 [2] = test: Cytotoxicity against human A549 cells assessed as survival rate under absence of light upto 10 uM measured after 12 hrs by MTT assay relative to control; assay type: functional; settings: up to 10 µM
A549 [3] = test: Induction of apoptosis in human A549 cells under 808 nm light irradiation by Annexin V-FITC/PI staining based flow cytometry; assay type: functional, cell-based
HeLa [4] = test: Cytotoxicity against human HeLa cells assessed as survival rate under laser light irradiation measured after 12 hrs by MTT assay; assay type: functional, cell-based; settings: dose <= 10.0 µM
A549 [5] = test: Inhibition of cell migration in human A549 cells under 808 nm light irradiation measured for 18 hrs by wound healing assay; assay type: functional, cell-based
[6] = Drug localization in human A549 cells assessed as co-localization co-efficient at 10 uM by LysoTracker Green DND-2 dye based analysis; assay type: ADME, cell-based; settings: a549, 10 µM
[7] = Toxicity in mouse model xenografted with human A549 cells assessed as body weight change at 300 uM, iv measured for 14 days; assay type: organism-based; settings: 336 h, time 14 day
A549 [8] = test: Antitumor activity against human A549 cells xenografted in mouse model assessed as tumor growth inhibition at 300 uM, iv administered every other day under laser light irradiation for 14 days; assay type: functional, organism-based; settings: time 14.0 day
[9] = Toxicity in mouse model xenografted with human A549 cells assessed as damage in liver at 300 uM, iv measured after 14 days by H and E staining based analysis; assay type: organism-based; settings: 336 h, time 14 day
[10] = Toxicity in mouse model xenografted with human A549 cells assessed as damage in heart at 300 uM, iv measured after 14 days by H and E staining based analysis; assay type: organism-based; settings: 336 h, time 14 day
[11] = Drug uptake in mouse model xenografted with human A549 cells at 300 uM, iv measured after 90 mins by fluorescence based imaging analysis; assay type: ADME, organism-based; settings: in vivo, 1.5 h
[12] = Drug metabolism in human A549 cells assessed as NTR-mediated metabolism under 5 percent oxygen at 10 uM incubated for 30 mins by DAPI staining based CLSM analysis; assay type: ADME, cell-based; settings: a549, 0.5 h
A549 [13] = test: Cytotoxicity against human A549 cells under 808 nm light irradiation by DCF-DA probe based analysis; assay type: functional, cell-based
A549 [14] = test: Antitumor activity against human A549 cells xenografted in mouse model assessed as cellular structural damage at 300 uM, iv administered every other day under laser light irradiation measured after 14 days by H and E staining based analysis; assay type: functional, organism-based; settings: time 14.0 day
HeLa [15] = test: Cytotoxicity against human HeLa cells assessed as survival rate under absence of light upto 10 uM measured after 12 hrs by MTT assay relative to control; assay type: functional; settings: up to 10 µM
A549 [16] = test: Cytotoxicity against human A549 cells assessed as survival rate under laser light irradiation at 2.5 uM measured after 12 hrs by MTT assay relative to control; assay type: functional; settings: A549, light or radiation study, read-out: Survival
A549 [17] = test: Cytotoxicity against human A549 cells assessed as survival rate under laser light irradiation measured after 12 hrs by MTT assay; assay type: functional, cell-based; settings: dose <= 10.0 µM
4T1 [18] = test: Cytotoxicity against mouse 4T1 cells assessed as survival rate under laser light irradiation at 2.5 uM measured after 12 hrs by MTT assay relative to control; assay type: functional; settings: 4T1, light or radiation study, read-out: Survival
[19] = Drug metabolism in human A549 cells assessed as NTR-mediated metabolism under 10 to 20 percent oxygen at 10 uM incubated for 30 mins by confocal fluorescence imaging based analysis; assay type: ADME, cell-based; settings: a549, 0.5 h
A549 [20] = test: Induction of singlet oxygen production in human A549 cells under 808 nm light irradiation by DCF-DA probe based analysis; assay type: functional, cell-based
[21] = Drug metabolism assessed as NTR(unknown origin)-mediated metabolism under 745 nm light irradiation by fluorescence based analysis; assay type: ADME; settings: human
A549 [22] = test: Antitumor activity against human A549 cells xenografted in mouse model assessed as tumor disappearance at 300 uM, iv administered every other day under laser light irradiation for 14 days relative to control; assay type: functional; settings: time 14 day
A549 [23] = test: Cytotoxicity against human A549 cells assessed as survival rate under laser light irradiation at 10 uM measured after 12 hrs by MTT assay relative to control; assay type: functional; settings: A549, light or radiation study, read-out: Survival
A549 [24] = test: Antitumor activity against human A549 cells xenografted in mouse model assessed as decrease in tumor re-occurence at 300 uM, iv administered every other day under laser light irradiation measured after 14 days during observation period; assay type: functional, organism-based; settings: time 14.0 day
4T1 [25] = test: Cytotoxicity against mouse 4T1 cells assessed as survival rate under laser light irradiation measured after 12 hrs by MTT assay; assay type: functional, cell-based; settings: dose <= 10.0 µM
4T1 [26] = test: Cytotoxicity against mouse 4T1 cells assessed as survival rate under absence of light upto 10 uM measured after 12 hrs by MTT assay relative to control; assay type: functional; settings: up to 10 µM
A549 [27] = test: Antitumor activity against human A549 cells xenografted in mouse model assessed as presence of necrotic cells at 300 uM, iv administered every other day under laser light irradiation measured after 14 days by H and E staining based analysis; assay type: functional, organism-based; settings: time 14.0 day
4T1 [28] = test: Cytotoxicity against mouse 4T1 cells assessed as survival rate under laser light irradiation at 10 uM measured after 12 hrs by MTT assay relative to control; assay type: functional; settings: 4T1, light or radiation study, read-out: Survival
HeLa [29] = test: Cytotoxicity against human HeLa cells assessed as survival rate under laser light irradiation at 2.5 uM measured after 12 hrs by MTT assay relative to control; assay type: functional; settings: light or radiation study, read-out: Survival
[30] = Toxicity in mouse model xenografted with human A549 cells assessed as damage in spleen at 300 uM, iv measured after 14 days by H and E staining based analysis; assay type: organism-based; settings: 336 h, time 14 day
HeLa [31] = test: Cytotoxicity against human HeLa cells assessed as survival rate under laser light irradiation at 10 uM measured after 12 hrs by MTT assay relative to control; assay type: functional; settings: light or radiation study, read-out: Survival
[32] = Drug localization in human HeLa cells assessed as co-localization co-efficient at 10 uM by LysoTracker Green DND-2 dye based analysis; assay type: ADME, cell-based
[33] = Drug uptake in human A549 cells xenografted in mouse model at 300 uM, iv measured after 2 hrs by fluorescence based imaging analysis; assay type: ADME, organism-based; settings: in vivo
[34] = Toxicity in mouse model xenografted with human A549 cells assessed as damage in kidney at 300 uM, iv measured after 14 days by H and E staining based analysis; assay type: organism-based; settings: 336 h, time 14 day
[35] = Toxicity in mouse model xenografted with human A549 cells assessed as damage in lung at 300 uM, iv measured after 14 days by H and E staining based analysis; assay type: organism-based; settings: 336 h, time 14 day
A549 [36] = test: Cytotoxicity against NAC-treated human A549 cells by DCF-DA probe based analysis; assay type: functional, cell-based
[37] = Induction of singlet oxygen quantum yield assessed as decrease in absorption signal under 415 nm light irradiation measured after 15 mins by DPBF based assay; assay type: functional; parameters: scale not given: the % may be the effect or the level left
[38] = Induction of singlet oxygen quantum yield under 808 nm light irradiation in presence of NTR by DPBF based assay; assay type: functional
[39] = Photostability of compound upto 2 W/cm2 measured for 8 mins; assay type: physicochemical
A549 [40] = test: Induction of singlet oxygen production in human A549 cells by DCF-DA probe based analysis; assay type: functional, cell-based
A549 [41] = test: Cytotoxicity against human A549 cells under near-infra red light irradiation; assay type: functional, cell-based
[42] = Drug metabolism in human A549 cells assessed as NTR-mediated metabolism at 10 uM incubated for 30 mins by DAPI staining based CLSM analysis; assay type: ADME, cell-based; settings: a549, 0.5 h
[43] = Drug metabolism in human HeLa cells assessed as NTR-mediated metabolism at 10 uM incubated for 30 mins by DAPI staining based CLSM analysis; assay type: ADME, cell-based; settings: 0.5 h
[44] = Drug metabolism in human L02 cells assessed as NTR-mediated metabolism at 10 uM incubated for 30 mins by DAPI staining based CLSM analysis; assay type: ADME, cell-based; settings: l02, 0.5 h

Question: Which Activity [1] does the source give for CC[N+]1=C(/C=C/C2=C3Oc4cc(O)ccc4C=C3CCC2)C(C)(C)c2ccccc21 here?
Answer: 0.002

Question: Which Survival (A549 [2]) does the source give for CC[N+]1=C(/C=C/C2=C3Oc4cc(N(C)C(=O)OCc5ccc([N+](=O)[O-])cc5)ccc4C=C3CCC2)C(C)(C)c2c1ccc1ccccc21.I here?
Answer: >85%

Question: What about the Activity (A549 [3]) of the same compound?
Answer: Active

Question: And the Activity (HeLa [4])?
Answer: Dose-dependent-effect

Question: And the inhibition (A549 [5])?
Answer: Active

Question: What about the Activity [6] of the same compound?
Answer: 0.9

Question: What about the Activity [7] of the same compound?
Answer: Non-toxic

Question: What about the inhibition (A549 [8]) of the same compound?
Answer: Active

Question: What about the Activity [9] of the same compound?
Answer: Non-toxic

Question: And the Activity [10]?
Answer: Non-toxic

Question: What about the Drug uptake [11] of the same compound?
Answer: Active

Question: What about the Drug metabolism [12] of the same compound?
Answer: metabolite_detected

Question: What about the Activity (A549 [13]) of the same compound?
Answer: Active

Question: What about the Activity (A549 [14]) of the same compound?
Answer: Active

Question: What about the Survival (HeLa [15]) of the same compound?
Answer: >85%

Question: And the viability at 2.5 µM (A549 [16])?
Answer: < 80%

Question: What about the Activity (A549 [17]) of the same compound?
Answer: Dose-dependent-effect

Question: What about the viability at 2.5 µM (4T1 [18]) of the same compound?
Answer: < 80%

Question: And the Drug metabolism [19]?
Answer: metabolite_notdetected

Question: What about the Activity (A549 [20]) of the same compound?
Answer: Active

Question: What about the Drug metabolism [21] of the same compound?
Answer: metabolite_detected

Question: And the Activity (A549 [22])?
Answer: ~100%

Question: And the viability at 10 µM (A549 [23])?
Answer: < 40%

Question: What about the Activity (A549 [24]) of the same compound?
Answer: Active

Question: And the Activity (4T1 [25])?
Answer: Dose-dependent-effect

Question: And the Survival (4T1 [26])?
Answer: >85%

Question: And the Activity (A549 [27])?
Answer: Active

Question: What about the viability at 10 µM (4T1 [28]) of the same compound?
Answer: < 40%

Question: What about the viability at 2.5 µM (HeLa [29]) of the same compound?
Answer: < 80%

Question: What about the Activity [30] of the same compound?
Answer: Non-toxic

Question: What about the viability at 10 µM (HeLa [31]) of the same compound?
Answer: < 40%

Question: And the Activity [32]?
Answer: 0.88

Question: And the Drug uptake [33]?
Answer: Active

Question: And the Activity [34]?
Answer: Non-toxic

Question: And the Activity [35]?
Answer: Non-toxic

Question: For CC[N+]1=C(/C=C/C2=C3Oc4cc(N)ccc4C=C3CCC2)C(C)(C)c2ccccc21, which Activity [1] is on record?
Answer: 0.005

Question: For CC[N+]1=C(/C=C/C2=C3Oc4cc(NC)ccc4C=C3CCC2)C(C)(C)c2c1ccc1ccccc21.[I-], which Activity (A549 [3]) is on record?
Answer: Active

Question: And the Activity (A549 [36])?
Answer: inactive

Question: What about the Activity [37] of the same compound?
Answer: 74.7%

Question: And the Activity [38]?
Answer: inactive

Question: And the Activity [1]?
Answer: 0.059

Question: What about the Stability [39] of the same compound?
Answer: Stable

Question: And the Activity (A549 [40])?
Answer: Active

Question: What about the Activity (A549 [41]) of the same compound?
Answer: Active

Question: With CC[N+]1=C(/C=C/C2=C3Oc4cc(O)ccc4C=C3CCC2)C(C)(C)c2c1ccc1ccccc21 as the compound, how does the Activity [1] read?
Answer: 0.002

Question: What does the source list for O=c1oc2ccccc2c(O)c1Cc1c(O)c2ccccc2oc1=O [DICUMAROL]?
Answer: Drug metabolism [42]: metabolite_notdetected; Drug metabolism [43]: metabolite_notdetected; Activity (A549 [13]): inactive; Activity (A549 [20]): inactive

Question: Which Activity [1] does the source give for CC[N+]1=C(/C=C/C2=C3Oc4cc(N)ccc4C=C3CCC2)C(C)(C)c2c1ccc1ccccc21 here?
Answer: 0.008

Question: With CC[N+]1=C(/C=C/C2=C3Oc4cc(NC)ccc4C=C3CCC2)C(C)(C)c2ccccc21 as the compound, how does the Activity [1] read?
Answer: 0.005

Question: With COBALTOUS CHLORIDE as the compound, how does the Drug metabolism [44] read?
Answer: metabolite_detected
